{
  "source": "paper PMC5520492",
  "about": "“Inhibition of DNA2 nuclease as a therapeutic strategy targeting replication stress in cancer cells” (Oncogenesis, 2017)",
  "key": {"[1]": {"test_system": "MCF10A cells with inducible H-Ras expression", "assay": "MTT proliferation, MCF10A with inducible H-Ras", "assay_type": "cell-based, human", "settings": "48-h treatment, doxycycline induction", "method": "(§1) Figure 5 Oncogene induction enhances sensitivity of cancer cells to NSC-105808. (a-e) Graphs showing proliferation of indicated cell lines in response to a 48-h treatment with the indicated concentrations of NSC-105808. Proliferation relative to cells treated with vehicle alone was determined by the 3-(4,5-dimethylthiazol-2-yl)-2,5-diphenyltetrazolium bromide (MTT) assay. Each value represents the mean±s.e.m. from three independent experiments. (a) Proliferation of control pancreatic epithelial cells DT-PD59 and transformed pancreatic cancer cells AsPC-1 and PANC-1. (b) Proliferation of normal breast epithelial cells MCF10A and breast cancer cells Hs578T and BT549. (c) Proliferation of MCF10A cells with or without H-Ras expression. H-Ras was induced with doxycycline (2 μg/ml). […]\n(§2) Cell proliferation was measured by 3-(4,5-dimethylthiazol-2-yl)-2,5-diphenyltetrazolium bromide (Sigma) reduction (Supplementary Materials and Methods).\n(§3) To determine the cell proliferation rate, 1000 cells/well were seeded in a 96-well plate in a total volume of 100 µl in triplicate in each experiment. […] Plates were read at 490 nm and 650 nm (background) in a\n(§4) microplate reader (Molecular Devices). After the subtraction of background, cell viability was calculated as fold change relative to control cells."}, "[2]": {"test_system": "AsPC-1, PANC-1 versus DT-PD59 cells", "assay": "MTT proliferation, pancreatic cell lines", "assay_type": "cell-based, human", "settings": "48-h treatment", "method": "as §1, §2, §3, §4"}, "FANCD2−/− cells": {"test_system": "FANCD2−/− cells", "assay": "Colony formation with cisplatin in FANCD2-deficient cells", "assay_type": "cell-based", "settings": "cisplatin 0.3125 µM, NSC-105808 […]", "method": "(§5) Figure 4 NSC-105808 inhibits HR repair and DSB end resection. (a) Analysis of HR efficiency with the DR-green fluorescent protein (GFP) assay. Representative images of flow cytometry analysis and bar graph showing percentage of GFP cells from at least three independent experiments. Each value represents the mean±s.d. (b, c) Analysis of RPA phosphorylation in U2OS cells treated with NSC-105808 (2 h, 0.3 μM) and/or camptothecin (CPT; 2 h, 1 μM). (b) Representative images of cells subjected to immunofluorescent staining of p-RPA and bar graph showing percentage of cells with positive p-RPA staining from three independent experiments. Each value represents the mean±s.d. (c) Western blot analysis of chromatin fraction with the indicated antibodies. (d) Analysis of colony formation by FANCD2 (+/+) and FANCD2 (−/−) cells treated with cisplatin and/or NSC-105808. Each value is relative to the untreated control group of each cell line. The graph represents the mean±s.e.m. from three independent experiments. *P<0.01.\nDNA2 knockdown cells were seeded at low density; cells were then left for 2 weeks to allow colonies to form. Cells were stained with 2% methylene blue/50% ethanol, and colonies containing 50 or more cells were counted. […] Colonies were fixed, stained, and scored ten days after treatment."}, "U2OS cells": {"test_system": "U2OS cells", "assay": "Cell cycle distribution (BrdU, flow cytometry)", "assay_type": "cell-based, human", "settings": "highest tested concentration 0.6 μM, 24 h; slight decrease of G1, increase of G2", "method": "Apoptosis was measured by flow cytometry using the Annexin V FITC assay kit based on the protocol from the manufacturer (Invitrogen). For BrdU (bromodeoxyuridine (5-bromo-2′-deoxyuridine)) analysis, after treatments, cells were labeled with BrdU (Sigma) for 30 min before fixation with 70% cold ethanol (−20 °C). The next day, cells were washed with cold phosphate-buffered saline and incubated with 2 M HCl for 5 min at room temperature. After adjusting the pH with 0.1 M sodium borate (pH 8.5), cells were incubated in 1% bovine serum albumin with 0.1% Triton X-100 for 30 min and mouse anti-BrdU antibody (1:400) for 1 h to detect BrdU labeling. After washing, cells were incubated with secondary antibody (fluorescein isothiocyanate 1:400) for 30 min. […] For fluorescence-activated cell sorting analysis, the percentage of cells with positive BrdU staining in each phase of the cell cycle was quantitated with the CellQuest software and ModFit software (Verity Software House Inc., Topsham, ME, USA).\nFigure S7: Cell cycle distribution of U2OS cells upon treatment with NSC-105808. (a) U2OS cells were treated with DMSO or the indicated concentration of NSC-105808 for 24 hrs followed by a pulse of BrdU (10 µM) for 30 minutes and then analyzed by flow cytometry. […] (c) Quantitation of the G1 cell population. […]"}, "[3]": {"test_system": "U2OS cells containing DR-GFP reporter", "assay": "DR-GFP gene conversion (HR) reporter assay", "assay_type": "cell-based, human", "settings": "24-h treatment", "method": "as §5\nThe DR-green fluorescent protein, pCAGGS and pCBASce plasmids were kindly provided by Dr Maria Jasin (Memorial Sloan-Kettering Cancer Center, New York, NY, USA). […]\nThe GFP expressing plasmid (pEGFP-C1) was used for transfection efficiency control. […] Efficiency of HR and SSA was calculated by normalizing I-SceI-induced GFP expression with EGFP transfection-induced GFP expression. […]"}},
  "data": [
    {"smiles": "NC1=C(Br)C(=O)c2ncccc2C1=O", "note": "[NSC-105808, 6-amino-7-bromoquinoline-5,8-dione]", "values": [
      {"measurement": "Sensitivity upon activation of H-Ras", "setting": "[1]", "value": "increased sensitivity"},
      {"measurement": "Sensitivity of transformed pancreatic cancer cell lines compared with non-transformed DT-PD59", "setting": "[2]", "value": "more sensitive"},
      {"measurement": "Cisplatin sensitivity of FANCD2−/− cells (colony formation)", "setting": "FANCD2−/− cells", "value": "lessened the cisplatin sensitivity"},
      {"measurement": "Impact on cell cycle distribution", "setting": "U2OS cells", "value": "only a mild impact"},
      {"measurement": "DSB repair by gene conversion", "setting": "[3]", "value": "significantly reduced"}
    ]}
  ]
}
